Experimental data taken from ChEMBL document CHEMBL2040728, “New substituted 4H-chromenes as anticancer agents” (Bioorg Med Chem Lett, 2012).
pIC50: −log10 of the molar value.

Key:
[1] = Antiproliferative activity against human WM164 cells after 48 hrs by SRB assay; format: functional, cell-based; conditions: WM164, 48 h
[2] = Antiproliferative activity against human paclitaxel-resistant PC3-TxR cells after 96 hrs by SRB assay; format: functional, cell-based
HCC 2998 = test: Cytotoxicity against human HCC2998 cells assessed as growth at 10 uM; format: functional; conditions: read-out: Activity
DU-145 = test: Cytotoxicity against human DU145 cells assessed as growth at 10 uM; format: functional; conditions: read-out: Activity
CCRF-CEM = test: Cytotoxicity against human CCRF-CEM cells assessed as growth at 10 uM; format: functional; conditions: read-out: Activity
786-0 = test: Cytotoxicity against human 786-0 cells assessed as growth at 10 uM; format: functional; conditions: read-out: Activity
HT-29 = test: Cytotoxicity against human HT-29 cells assessed as growth at 10 uM; format: functional; conditions: read-out: Activity
[3] = Cytotoxicity against mouse primary astrocytes after 5 days by MTT assay; format: cell-based; conditions: Astrocyte, 120 h
[4] = Antiproliferative activity against human LN18 cells after 5 days by MTT assay; format: functional, cell-based; conditions: LN-18, 120 h
U-251 = test: Cytotoxicity against human U251 cells assessed as growth at 10 uM; format: functional; conditions: read-out: Activity
SF-268 = test: Cytotoxicity against human SF268 cells assessed as growth at 10 uM; format: functional; conditions: read-out: Activity
SF-539 = test: Cytotoxicity against human SF539 cells assessed as growth at 10 uM; format: functional; conditions: read-out: Activity
SW-620 = test: Cytotoxicity against human SW620 cells assessed as growth at 10 uM; format: functional; conditions: read-out: Activity
BT-549 = test: Cytotoxicity against human BT549 cells assessed as growth at 10 uM; format: functional; conditions: read-out: Activity
Malme-3M = test: Cytotoxicity against human MALME-3M cells assessed as growth at 10 uM; format: functional; conditions: read-out: Activity
RPMI-8226 = test: Cytotoxicity against human RPMI8226 cells assessed as growth at 10 uM; format: functional; conditions: read-out: Activity
OVCAR-5 = test: Cytotoxicity against human OVCAR5 cells assessed as growth at 10 uM; format: functional; conditions: read-out: Activity
CAKI-1 = test: Cytotoxicity against human Caki1 cells assessed as growth at 10 uM; format: functional; conditions: read-out: Activity
SK-MEL-5 = test: Cytotoxicity against human SK-MEL-5 cells assessed as growth at 10 uM; format: functional; conditions: read-out: Activity
TK-10 = test: Cytotoxicity against human TK10 cells assessed as growth at 10 uM; format: functional; conditions: read-out: Activity
K562 = test: Cytotoxicity against human K562 cells assessed as growth at 10 uM; format: functional; conditions: read-out: Activity
MDA-MB-468 = test: Cytotoxicity against human MDA-MB-468 cells assessed as growth at 10 uM; format: functional; conditions: read-out: Activity
HCT-15 = test: Cytotoxicity against human HCT15 cells assessed as growth at 10 uM; format: functional; conditions: read-out: Activity
MOLT-4 = test: Cytotoxicity against human MOLT4 cells assessed as growth at 10 uM; format: functional; conditions: read-out: Activity
SK-OV-3 = test: Cytotoxicity against human SKOV3 cells assessed as growth at 10 uM; format: functional; conditions: read-out: Activity
[5] = Antiproliferative activity against human A172 cells after 5 days by MTT assay; format: functional, cell-based; conditions: A 172, 120 h
ACHN = test: Cytotoxicity against human ACHN cells assessed as growth at 10 uM; format: functional; conditions: read-out: Activity
LNCaP = test: Antiproliferative activity against human LNCAP cells after 96 hrs by SRB assay; format: functional, cell-based
SK-MEL-28 = test: Cytotoxicity against human SK-MEL-28 cells assessed as growth at 10 uM; format: functional; conditions: read-out: Activity
UO-31 = test: Cytotoxicity against human UO31 cells assessed as growth at 10 uM; format: functional; conditions: read-out: Activity
MDA-MB-231 = test: Cytotoxicity against human MDA-MB-231 cells assessed as growth at 10 uM; format: functional; conditions: read-out: Activity
M14 = test: Cytotoxicity against human M14 cells assessed as growth at 10 uM; format: functional; conditions: read-out: Activity
SNB-19 = test: Cytotoxicity against human SNB19 cells assessed as growth at 10 uM; format: functional; conditions: read-out: Activity
OVCAR-3 = test: Cytotoxicity against human OVCAR3 cells assessed as growth at 10 uM; format: functional; conditions: read-out: Activity
KM12 = test: Cytotoxicity against human KM12 cells assessed as growth at 10 uM; format: functional; conditions: read-out: Activity
MDA-MB-435 = test: Cytotoxicity against human MDA-MB-435 cells assessed as growth at 10 uM; format: functional; conditions: read-out: Activity
NCI/ADR-RES = test: Cytotoxicity against human NCI/ADR-RES cells assessed as growth at 10 uM; format: functional; conditions: read-out: Activity
UACC-62 = test: Cytotoxicity against human UACC62 cells assessed as growth at 10 uM; format: functional; conditions: read-out: Activity
EKVX = test: Cytotoxicity against human EKVX cells assessed as growth at 10 uM; format: functional; conditions: read-out: Activity
HL-60(TB) = test: Cytotoxicity against human HL-60(TB) cells assessed as growth at 10 uM; format: functional; conditions: read-out: Activity
SNB-75 = test: Cytotoxicity against human SNB75 cells assessed as growth at 10 uM; format: functional; conditions: read-out: Activity
NCI-H23 = test: Cytotoxicity against human NCI-H23 cells assessed as growth at 10 uM; format: functional; conditions: read-out: Activity
RXF 393 = test: Cytotoxicity against human RXF393 cells assessed as growth at 10 uM; format: functional; conditions: read-out: Activity
PC-3 [6] = test: Cytotoxicity against human PC3 cells assessed as growth at 10 uM; format: functional; conditions: read-out: Activity
UACC-257 = test: Cytotoxicity against human UACC257 cells assessed as growth at 10 uM; format: functional; conditions: read-out: Activity
NCI-H226 = test: Cytotoxicity against human NCI-H226 cells assessed as growth at 10 uM; format: functional; conditions: read-out: Activity
HOP-92 = test: Cytotoxicity against human HOP92 cells assessed as growth at 10 uM; format: functional; conditions: read-out: Activity
[7] = Cytotoxicity against human Hs 578T cells assessed as growth at 10 uM; format: functional; conditions: read-out: Activity
OVCAR-8 = test: Cytotoxicity against human OVCAR8 cells assessed as growth at 10 uM; format: functional; conditions: read-out: Activity
A549 = test: Cytotoxicity against human A549 cells assessed as growth at 10 uM; format: functional; conditions: read-out: Activity
LOX IMVI = test: Cytotoxicity against human LOXIMVI cells assessed as growth at 10 uM; format: functional; conditions: read-out: Activity
SK-MEL-2 = test: Cytotoxicity against human SK-MEL-2 cells assessed as growth at 10 uM; format: functional; conditions: read-out: Activity
SN12C = test: Cytotoxicity against human SN12C cells assessed as growth at 10 uM; format: functional; conditions: read-out: Activity
T47D = test: Cytotoxicity against human T47D cells assessed as growth at 10 uM; format: functional; conditions: read-out: Activity
A-375 = test: Antiproliferative activity against human A375 cells after 48 hrs by SRB assay; format: functional, cell-based; conditions: A-375, 48 h
COLO 205 = test: Cytotoxicity against human COLO205 cells assessed as growth at 10 uM; format: functional; conditions: read-out: Activity
OVCAR-4 = test: Cytotoxicity against human OVCAR4 cells assessed as growth at 10 uM; format: functional; conditions: read-out: Activity
PC-3 [8] = test: Antiproliferative activity against human PC3 cells after 96 hrs by SRB assay; format: functional, cell-based; conditions: PC-3, 96 h
HOP-62 = test: Cytotoxicity against human HOP62 cells assessed as growth at 10 uM; format: functional; conditions: read-out: Activity
NCI-H322M = test: Cytotoxicity against human NCI-H322M cells assessed as growth at 10 uM; format: functional; conditions: read-out: Activity
IGROV-1 = test: Cytotoxicity against human IGROV1 cells assessed as growth at 10 uM; format: functional; conditions: read-out: Activity
SF-295 = test: Cytotoxicity against human SF295 cells assessed as growth at 10 uM; format: functional; conditions: read-out: Activity
[9] = Antiproliferative activity against human U87 cells after 5 days by MTT assay; format: functional, cell-based, U-87MG ATCC; conditions: U-87 MG, 120 h
NCI-H522 = test: Cytotoxicity against human NCI-H522 cells assessed as growth at 10 uM; format: functional; conditions: read-out: Activity
HCT-116 = test: Cytotoxicity against human HCT116 cells assessed as growth at 10 uM; format: functional; conditions: read-out: Activity
MCF7 = test: Cytotoxicity against human MCF7 cells assessed as growth at 10 uM; format: functional; conditions: read-out: Activity
NCI-H460 = test: Cytotoxicity against human NCI-H460 cells assessed as growth at 10 uM; format: functional; conditions: read-out: Activity
T98G = test: Antiproliferative activity against human T98G cells after 5 days by MTT assay; format: functional, cell-based; conditions: 120 h

## COc1cc2c(c(OC)c1OC)-c1ccc(OC)c(=O)cc1[C@@H](NC(C)=O)CC2 [COLCHICINE]
[1]
  pIC50: 7.52
[2]
  pIC50: 7.70

## CN(C)c1ccc2c(c1)OC(N)=C(C#N)C2c1cccc2c(F)cccc12 (centres undefined)
HCC 2998
  growth at 10 µM: 7.74%
DU-145
  growth at 10 µM: -16.5%
CCRF-CEM
  growth at 10 µM: 11.3%
786-0
  growth at 10 µM: 16.8%
HT-29
  growth at 10 µM: -3.8%
[3]
  pIC50: 5.02
[4]
  pIC50: 7.09
U-251
  growth at 10 µM: 6.44%
SF-268
  growth at 10 µM: 24.8%
SF-539
  growth at 10 µM: -7.29%
SW-620
  growth at 10 µM: 23.5%
BT-549
  growth at 10 µM: -12.8%
Malme-3M
  growth at 10 µM: 49.6%
RPMI-8226
  growth at 10 µM: 20.5%
OVCAR-5
  growth at 10 µM: 27.6%
CAKI-1
  growth at 10 µM: 22.9%
SK-MEL-5
  growth at 10 µM: 13.7%
TK-10
  growth at 10 µM: 45.8%
K562
  growth at 10 µM: 6.85%
MDA-MB-468
  growth at 10 µM: 27.6%
HCT-15
  growth at 10 µM: 6.89%
MOLT-4
  growth at 10 µM: 13.9%
SK-OV-3
  growth at 10 µM: 5.75%
[5]
  pIC50: 7.68
ACHN
  growth at 10 µM: 27.6%
LNCaP
  pIC50: 6.60
SK-MEL-28
  growth at 10 µM: 54.1%
UO-31
  growth at 10 µM: 49.4%
MDA-MB-231
  growth at 10 µM: 31.9%
M14
  growth at 10 µM: -1.53%
SNB-19
  growth at 10 µM: 39%
OVCAR-3
  growth at 10 µM: -35.4%
KM12
  growth at 10 µM: -0.79%
MDA-MB-435
  growth at 10 µM: -32.4%
NCI/ADR-RES
  growth at 10 µM: -6.17%
UACC-62
  growth at 10 µM: 38.9%
EKVX
  growth at 10 µM: 36.7%
HL-60(TB)
  growth at 10 µM: -18.4%
SNB-75
  growth at 10 µM: 22.3%
NCI-H23
  growth at 10 µM: -0.47%
RXF 393
  growth at 10 µM: 7.11%
PC-3 [6]
  growth at 10 µM: 14.4%
[1]
  pIC50: 6.66
UACC-257
  growth at 10 µM: 51.5%
NCI-H226
  growth at 10 µM: 0%
HOP-92
  growth at 10 µM: -2.42%
[7]
  growth at 10 µM: 19.2%
OVCAR-8
  growth at 10 µM: -23.4%
A549
  growth at 10 µM: 11.5%
LOX IMVI
  growth at 10 µM: 5.96%
SK-MEL-2
  growth at 10 µM: 27.9%
SN12C
  growth at 10 µM: 16.4%
T47D
  growth at 10 µM: 61.8%
A-375
  pIC50: 6.89
COLO 205
  growth at 10 µM: -38.1%
OVCAR-4
  growth at 10 µM: 27.3%
PC-3 [8]
  pIC50: 6.38
HOP-62
  growth at 10 µM: 39.8%
NCI-H322M
  growth at 10 µM: 45.4%
IGROV-1
  growth at 10 µM: 32.3%
SF-295
  growth at 10 µM: 8.13%
[9]
  pIC50: 7.20
NCI-H522
  growth at 10 µM: -17.5%
HCT-116
  growth at 10 µM: -5.99%
[2]
  pIC50: 6.72
MCF7
  growth at 10 µM: 13.3%
NCI-H460
  growth at 10 µM: 1.28%

## Cn1nnc2c(C(N)=O)ncn2c1=O [TEMOZOLOMIDE]
[3]
  pIC50: < 3.00
[4]
  pIC50: 3.41
T98G
  pIC50: 3.24
[5]
  pIC50: 4.19
[9]
  pIC50: 4.31

## CN(C)c1ccc2c(c1)OC(N)=C(C#N)C2c1ccc(F)c2ccccc12 (centres undefined)
LNCaP
  pIC50: 6.39
[1]
  pIC50: 6.33
A-375
  pIC50: 6.55
PC-3 [8]
  pIC50: 6.19
[2]
  pIC50: 6.54
